The source of these data is PubChem BioAssay (NCI).

Test systems include MCF7 breast; SK-MEL-5 melanoma; T-47D breast; A549 NSCLC; A498 renal; SF-539 CNS; OVCAR-8 ovarian; RPMI-8226 leukemia; HT29 colon; HCC-2998 colon.
Holding throughout (assay): inhibition of tumour cell growth, NCI panel, 48 h

“And” between values parts separate entries of the source, which are not always exact repeats. Equal values may be shown once.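 48-hour exposure; five concentrations; linearly interpolated endpoints. GI50 = concentration required for 50% inhibition of growth. TGI: total growth inhibition.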

Consider `CCCCCCCCCCCCCCCCOCC(O)CO` (configuration not stated), for which the TGI with MCF7 breast worked out at 38.1 µM; in the assay on SK-MEL-5 melanoma, 71.9 µM; in the assay on T-47D breast it was 46.2 µM; with A549 NSCLC, 44 µM; in the assay on A498 renal, 34.5 µM; in the assay with SF-539 CNS, 31.5 µM. Further, the TGI in the assay with OVCAR-8 ovarian was 35.4 µM; in the assay with RPMI-8226 leukemia it was 37.4 µM; in the assay with HT29 colon, 31.8 µM; in the assay with HCC-2998 colon, 32.2 µM.
As to `Cn1cc(NC(=O)Nc2cc(C(=O)Nc3cc(C(=O)Nc4cc(S(=O)(=O)O)c5cc(S(=O)(=O)O)cc(S(=O)(=O)O)c5c4)n(C)c3)n(C)c2)cc1C(=O)Nc1cc(C(=O)Nc2cc(S(=O)(=O)O)c3cc(S(=O)(=O)O)cc(S(=O)(=O)O)c3c2)n(C)c1`, the TGI in the assay with MCF7 breast, in the assay with SK-MEL-5 melanoma, in the assay with T-47D breast, with A549 NSCLC, in the assay with SF-539 CNS and in the assay with OVCAR-8 ovarian was more than 100 µM each time. Also, the TGI in the assay on RPMI-8226 leukemia, in the assay with HT29 colon and in the assay on HCC-2998 colon was more than 100 µM throughout.
Consider `Cn1cc(-c2nc(N[C@@H]3CCCC[C@@H]3N)c(F)c3c2C(=O)NC3)cn1`, for which the GI50 is 5.81 µM and 6.21 µM in the assay with MCF7 breast; 29.2 µM and 22.6 µM with SK-MEL-5 melanoma; 24.8 µM and 33.7 µM in the assay on T-47D breast; 6.47 µM and 9.22 µM in the assay with A549 NSCLC; 1.72 µM and 2.45 µM in the assay on A498 renal; 2.81 µM and 3.16 µM in the assay on SF-539 CNS. Besides, the GI50 with OVCAR-8 ovarian is 10.8 µM and 12.4 µM; in the assay with RPMI-8226 leukemia, 26.2 µM and 29.1 µM; with HT29 colon it was 4.33 µM and 5.99 µM; with HCC-2998 colon, 26.6 µM and 28.2 µM. Also, the TGI in the assay with MCF7 breast was more than 100 µM; in the assay on SK-MEL-5 melanoma, more than 100 µM; in the assay with T-47D breast, 77.3 µM and > 96.6 µM; in the assay on A549 NSCLC it was 75.5 µM and 81.1 µM; with A498 renal it was 8.43 µM and 11.3 µM; in the assay on SF-539 CNS it was 13.9 µM and 16.1 µM. Further, the TGI with OVCAR-8 ovarian is 66.1 µM and > 75.3 µM; in the assay with RPMI-8226 leukemia, more than 100 µM; in the assay on HT29 colon it was 81.5 µM and > 94.4 µM; in the assay on HCC-2998 colon, more than 100 µM.
On to `NNC(=O)C(O)C(O)C(=O)NN` (configuration not stated), for which the TGI with MCF7 breast, in the assay with SK-MEL-5 melanoma, in the assay on T-47D breast, in the assay with A549 NSCLC, in the assay on A498 renal and in the assay on OVCAR-8 ovarian was more than 100 µM throughout. Besides, the TGI in the assay with RPMI-8226 leukemia, in the assay with HT29 colon and in the assay on HCC-2998 colon was more than 100 µM each time.
Take `O=Cc1ccc(N2CCN(c3ccc(C=O)cc3)CC2)cc1`: the GI50 with MCF7 breast is 97.7 µM; with SK-MEL-5 melanoma it was more than 100 µM; in the assay on T-47D breast, 3.35 µM; in the assay on A549 NSCLC, 40.1 µM; with SF-539 CNS it was more than 100 µM; in the assay on OVCAR-8 ovarian, more than 100 µM. The GI50 is more than 100 µM in the assay with RPMI-8226 leukemia, more than 100 µM in the assay with HT29 colon and 60.8 µM in the assay on HCC-2998 colon. The TGI was more than 100 µM with MCF7 breast; more than 100 µM in the assay on SK-MEL-5 melanoma; 32.6 µM in the assay on T-47D breast; more than 100 µM in the assay on A549 NSCLC; more than 100 µM in the assay on SF-539 CNS; more than 100 µM in the assay with OVCAR-8 ovarian. Also, the TGI with RPMI-8226 leukemia, with HT29 colon and with HCC-2998 colon was more than 100 µM each time.
`CN=C(N)N/N=C(\C)c1ccc2c(c1)Cc1ccccc1-2`: the GI50 in the assay with SK-MEL-5 melanoma was 1.61 µM; in the assay with T-47D breast it was 1.32 µM; in the assay with A498 renal it was 2.89 µM; in the assay with SF-539 CNS, 1.66 µM; in the assay with RPMI-8226 leukemia, 1.72 µM; with HT29 colon, 1.61 µM. Besides, the GI50 in the assay with HCC-2998 colon is 1.67 µM. For the same compound, the TGI in the assay with SK-MEL-5 melanoma turned out to be 2.95 µM; in the assay on T-47D breast it was 2.92 µM; in the assay on A498 renal it was 9.21 µM; in the assay on SF-539 CNS, 3.02 µM; in the assay with RPMI-8226 leukemia, 4.16 µM; in the assay with HT29 colon, 3.39 µM. In addition, the TGI with HCC-2998 colon is 3.09 µM.
For the compound `O=C(/C=C/c1ccccc1)CCC1C(=O)NC(=S)NC1=O`, the TGI in the assay with SK-MEL-5 melanoma, in the assay on T-47D breast, in the assay with A549 NSCLC, in the assay with A498 renal, with SF-539 CNS and in the assay with OVCAR-8 ovarian was more than 100 µM each time. The TGI in the assay on HCC-2998 colon was more than 100 µM.
Take `Cc1c2ccncc2c(C)c2c1[nH]c1ccc(Cl)cc12`: the TGI with MCF7 breast is 6.28 µM; with SK-MEL-5 melanoma, 13.8 µM; in the assay on A549 NSCLC, 11.2 µM and 15.2 µM; with A498 renal it was 14.7 µM; in the assay with SF-539 CNS it was 6.68 µM and 7.97 µM; in the assay on OVCAR-8 ovarian it was 4.35 µM and 2.62 µM. Further, the TGI in the assay on RPMI-8226 leukemia is 9.7 µM and 4.43 µM; in the assay with HT29 colon, 9.24 µM and 2.52 µM; in the assay with HCC-2998 colon, 19.3 µM and 13.9 µM. For the same compound, the GI50 with A549 NSCLC is 3.27 µM and 3.56 µM; with SF-539 CNS, 2.09 µM; with RPMI-8226 leukemia, 1.77 µM; with HT29 colon, 1.04 µM; with HCC-2998 colon, 2.34 µM.
Consider `COc1cc2c(cc1OCCCOc1ccc(-c3nc4ccc(N5CCN(C)CC5)cc4[nH]3)cc1)N=C[C@@H]1CCCN1C2=O`, for which the GI50 in the assay on MCF7 breast, in the assay on SK-MEL-5 melanoma, in the assay with T-47D breast, in the assay on A549 NSCLC, in the assay on A498 renal and with SF-539 CNS was less than 0.01 µM in each case. In addition, the GI50 with OVCAR-8 ovarian, in the assay with RPMI-8226 leukemia and with HT29 colon was less than 0.01 µM each time. Moreover, the TGI in the assay on MCF7 breast was 5.12 µM; with SK-MEL-5 melanoma it was less than 0.01 µM; in the assay on T-47D breast, 15 µM; in the assay with A549 NSCLC, less than 0.0222 µM; in the assay on A498 renal, less than 0.01 µM; in the assay with SF-539 CNS, less than 0.01 µM. The results for the TGI in the assay with OVCAR-8 ovarian, in the assay with RPMI-8226 leukemia and in the assay on HT29 colon were less than 0.01 µM, less than 0.01 µM and more than 100 µM, respectively.
With `Nc1nc(N)c2c(n1)NC(c1sc(Cl)nc1Cl)CC(c1ccc3c(c1)OCO3)=N2` (configuration not stated), the GI50 in the assay on MCF7 breast was 2.81 µM; in the assay on SK-MEL-5 melanoma, 3.43 µM; in the assay on T-47D breast, 5.36 µM; in the assay on A549 NSCLC it was 6.47 µM; in the assay with A498 renal, 2.3 µM; in the assay with SF-539 CNS, 2.22 µM. In addition, the GI50 in the assay on OVCAR-8 ovarian was 4.86 µM; in the assay on RPMI-8226 leukemia it was 4.66 µM; in the assay with HCC-2998 colon, 6.11 µM. Besides, the TGI in the assay with MCF7 breast was 47.2 µM; with SK-MEL-5 melanoma, 13.3 µM; in the assay on T-47D breast it was 64.1 µM; in the assay on A549 NSCLC, more than 100 µM; in the assay on A498 renal it was 12 µM; with SF-539 CNS, 8.24 µM. In addition, the TGI worked out at 46.9 µM in the assay on OVCAR-8 ovarian, 25 µM in the assay with RPMI-8226 leukemia and 20 µM in the assay with HCC-2998 colon.
